The values that follow come from patent US9682955B2, “Quinazoline derivatives useful as CB-1 inverse agonists” (Janssen Pharmaceutica NV, priority 2014, dated 2017).

For assay [1], the target named is hCB1-CHO-K1 membranes (Homo sapiens (Human), UniProt P21554). The assay is described as follows: CB-1 membrane binding assay ([3H] CP 55,940 displacement). Particulars: [3H] CP 55,940 0.4 nM. As to the method:
Into Greiner V bottom polypropylene plates, hCB1-CHO-K1 membranes (2 μg/well final concentration) in assay buffer (50 mM Tris-HCl pH 7.4, 5 mM MgCl2 and 0.5 mg/ml (0.05%) Ultra fatty acid free BSA) were dispensed. Membranes were purchased from Perkin Elmer. Test compounds were then added to each well and then [^3H] CP 55, 940 (0.4 nM final well concentration) in assay buffer (50 mM Tris-HCl pH 7.4, 5 mM MgCl2 and 0.5 mg/ml (0.05%) Ultra fatty acid free BSA) was added. Samples were mixed and incubated for 90 min at 30° C. in the Greiner V Bottom Polypropylene plate. After incubation, assay reagents were transferred to a blocked 384 well polypropylene filter plates. The binding reaction was stopped by filtration and washed seven times with ice cold rinse buffer. Filter plates were then dried overnight at room temperature. The next day, plate bottoms were sealed with plate tape and 15 μl MicroScint 20 was added to each well. Plates were incubated for 2h and radioactivity was measured by Topcount.
Total Binding levels were achieved by combining membrane, DMSO, and [^3H] CP-55,940 (also known as 5-(1,1-dimethylheptyl)-2-[(1R,2R,5R)-5-hydroxy-2-(3-hydroxypropyl)cyclohexyl]-phenol). […]
IC50 data was calculated using raw CPM values. […] IC50 values were fit appropriately and calculated using the following equation: […]

Assay [2] addresses Human CB2R (Cannabanoid receptor 2) (Homo sapiens (Human), UniProt P34972). In words: CB-2 in vitro cAMP assay (HTRF). The format is cell-based. Particulars: mean where tested more than once. A digest of the protocol: (§1)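 HEK-293 cells stably transfected with the human receptor, plated overnight at 4E5 cells/mL. Compounds given as 1/3 serial dilutions from 10 mM DMSO stocks. Stimulation in HBSS/5 mM HEPES/0.1% BSA with 0.5 mM IBMX and forskolin (1.5 μM in buffer); cAMP measured by competitive HTRF immunoassay (d2-cAMP, cryptate anti-cAMP) against a cAMP standard curve.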

Assay [3] has as its target Human CB1R (Cannabanoid receptor 1) (Homo sapiens (Human), UniProt P21554). In words: CB-1 in vitro cAMP assay (HTRF). The class given is cell-based. As to conditions: mean where tested more than once. A digest of the protocol: as §1
Background: Cyclic AMP is a second messenger, typically raised through Gs and lowered through Gi signalling.

The structures appear in SMILES notation. pEC50, pIC50: −log10 of the molar value.

hCB1-CHO-K1 membranes, sequence (P21554 whole entry): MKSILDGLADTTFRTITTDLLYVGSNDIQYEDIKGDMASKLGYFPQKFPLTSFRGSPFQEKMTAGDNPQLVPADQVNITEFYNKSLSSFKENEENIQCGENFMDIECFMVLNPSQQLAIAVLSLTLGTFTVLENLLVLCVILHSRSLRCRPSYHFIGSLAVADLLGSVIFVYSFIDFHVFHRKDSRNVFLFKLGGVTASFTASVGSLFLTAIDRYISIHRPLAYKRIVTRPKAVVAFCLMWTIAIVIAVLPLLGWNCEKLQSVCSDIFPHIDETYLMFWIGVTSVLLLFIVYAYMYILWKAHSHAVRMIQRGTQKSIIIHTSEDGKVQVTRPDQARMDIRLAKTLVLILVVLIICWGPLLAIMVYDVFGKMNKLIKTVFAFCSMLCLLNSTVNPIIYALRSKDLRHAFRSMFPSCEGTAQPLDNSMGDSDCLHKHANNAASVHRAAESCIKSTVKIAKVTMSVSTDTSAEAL
Human CB1R (Cannabanoid receptor 1), sequence (P21554 whole entry): as above
Human CB2R (Cannabanoid receptor 2), sequence (P34972 whole entry): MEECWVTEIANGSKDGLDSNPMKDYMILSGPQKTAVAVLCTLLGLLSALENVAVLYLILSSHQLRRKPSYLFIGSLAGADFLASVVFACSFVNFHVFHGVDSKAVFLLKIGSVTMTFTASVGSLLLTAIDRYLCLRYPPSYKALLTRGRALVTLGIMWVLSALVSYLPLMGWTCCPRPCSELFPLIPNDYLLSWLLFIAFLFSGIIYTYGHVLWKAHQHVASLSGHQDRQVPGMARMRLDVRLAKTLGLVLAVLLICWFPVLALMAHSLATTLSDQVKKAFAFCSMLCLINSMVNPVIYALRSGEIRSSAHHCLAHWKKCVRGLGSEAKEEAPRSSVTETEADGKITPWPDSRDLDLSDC

In assay [1], `CS(=O)(=O)N1CCC(Nc2ncnc3ccc(C(c4ccc(Cl)cc4)c4ccc(Cl)cc4)cc23)CC1` [Compound #140, 6-(bis(4-chlorophenyl)methyl)-N-(1-(methylsulfonyl)piperidin-4-yl) quinazolin-4-amine] gave a pIC50 of 7.13. Besides, the negative logarithm of the EC50 (pEC50) in assay [2] was 5.61; in assay [3] it was 7.62.

A word on the pIC50: it is the IC50 on a negative log10 scale, so that one unit is a factor of ten. A high value points to a low IC50. As a reminder, the pEC50 is the negative decadic logarithm of the EC50, by convention in mol/L. Low readings indicate a large EC50, high ones a small EC50.
